Square brackets hold non-standard residues; d marks the D form. Peptide text beside a SMILES is read from it. PEG24 = NCCOCCOCCOCCOCCOCCOCCOCCOCCOCCOCCOCCOCCOCCOCCOCCOCCOCCOCCOCCOCCOCCOCCOCCOCCC(=O)O; Sar = CNCC(=O)O
Tests used:
[1] = system: complement activation in factor B-depleted human sera; type: biochemical
Experimental: Peptides were diluted to 0.77 mM in factor B-depleted human sera (Complement Technologies, Inc.) and incubated for 1 hour at 37° C. These peptides were then diluted with GVBS^++ to equal 2.5/s serum, of which 0.25 ml was combined with 0.4 ml of GVBS^++ and 0.1 ml of sensitized sheep red blood cells (RBCs) and again incubated for 1 hour at 37° C. The procedure was stopped by the addition of 4.0 ml of GVBS^−−, centrifuged for 5 minutes at 1,620×g, and the absorbance of the supernatants was read at 412 nm in a spectrophotometer. The percent lysis of each sample was standardized to that of the serum only control.
The final concentration of peptide in factor B-depleted serum was 0.77 mM. Each peptide was evaluated in triplicate and the mean values are reported. […] In the hemolytic assay, soluble peptides are standardized to water and insoluble peptides standardized to DMSO.
Polar Assortant peptides were serially diluted in undiluted factor B-depleted human sera (Complement Technologies, Inc.) and incubated for 1 hour at 37° C. Water, GVBS^++ and DMSO were included as controls. These peptides were then diluted with GVBS^++ to equal 2.5/s serum, of which 0.25 ml was combined with 0.4 ml of GVBS^++ and 0.1 ml of sensitized sheep red blood cells (RBCs) and again incubated for 1 hour at 37° C. The procedure was stopped by the addition of 4.0 ml of GVBS^−−, centrifuged for 5 minutes at 1,620×g, and the absorbance of the supernatants was read at 412 nm in a spectrophotometer. The percent lysis of each sample was standardized to that of the serum only control.
The final concentration of peptide in factor B-depleted serum was 0.77 mM. […] In the hemolytic assay, soluble peptides were standardized to water and insoluble peptides standardized to DMSO.
The final concentration of peptide in factor B-depleted serum was 0.77 mM. […] In the hemolytic assay, soluble peptides are standardized to water and insoluble peptides standardized to DMSO.

[2] = Solubility in water; type: physicochemical
[3] = Table 7, PEGylated and sarcosine/alanine substitution peptides
[4] = Table 5, sarcosine substitution peptides

Row | SMILES | Hemolysis (%) [1] [%] | Solubility in water ([2]; Table 6, PEGylated PA peptides) | further results
1 | CC[C@H](C)[C@H](N)C(=O)N[C@@H](C)C(=O)N[C@@H](CC(C)C)C(=O)N[C@H](C(=O)N[C@@H](CC(C)C)C(=O)N[C@@H](C)C(=O)N1CCC[C@H]1C(=O)N[C@H](C(=O)N[C@@H](CS)C(=O)N[C@@H](CS)C(=O)N[C@@H](CCC(N)=O)C(=O)N[C@@H](C)C(=O)N[C@@H](CCCNC(=N)N)C(=O)N[C@@H](C)C(=O)N[C@@H](C)C(=O)NCCOCCOCCOCCOCCOCCOCCOCCOCCOCCOCCOCCOCCOCCOCCOCCOCCOCCOCCOCCOCCOCCOCCOCCOCCC(=O)O)[C@@H](C)CC)[C@@H](C)CC [E6AE12A-dPEG24] (H-IALILAPICCQARAA[PEG24]-OH; N-terminus assumed) | 4.95 | – | Solubility in water [2, 3]: Yes
2 | CC[C@H](C)[C@H](N)C(=O)N(C)CC(=O)N[C@@H](CC(C)C)C(=O)N[C@H](C(=O)N[C@@H](CC(C)C)C(=O)N[C@@H](CCC(=O)O)C(=O)N1CCC[C@H]1C(=O)N[C@H](C(=O)N[C@@H](CS)C(=O)N[C@@H](CS)C(=O)N[C@@H](CCC(N)=O)C(=O)N[C@@H](CCC(=O)O)C(=O)N[C@@H](CCCNC(=N)N)C(=O)N[C@@H](C)C(=O)N[C@@H](C)C(=O)O)[C@@H](C)CC)[C@@H](C)CC [PA-A2Sar] (H-I[Sar]LILEPICCQERAA-OH; N-terminus and C-terminus assumed) | 37.72 | – | Solubility in water [2, 4]: Yes
3 | CC[C@H](C)[C@H](N)C(=O)N[C@@H](C)C(=O)N[C@@H](CC(C)C)C(=O)N[C@H](C(=O)N[C@@H](CC(C)C)C(=O)N[C@@H](CCC(=O)O)C(=O)N1CCC[C@H]1C(=O)N[C@H](C(=O)N[C@@H](CS)C(=O)N[C@@H](CS)C(=O)N[C@@H](CCC(N)=O)C(=O)N[C@@H](CCC(=O)O)C(=O)N[C@@H](CCCNC(=N)N)C(=O)N(C)CC(=O)N[C@@H](C)C(=O)NCCOCCOCCOCCOCCOCCOCCOCCOCCOCCOCCOCCOCCOCCOCCOCCOCCOCCOCCOCCOCCOCCOCCOCCOCCC(=O)O)[C@@H](C)CC)[C@@H](C)CC [PA-A14Sar-dPEG24] | 3.68 | – | Solubility in water [2, 3]: Yes
4 | CC[C@H](C)[C@H](N)C(=O)N[C@@H](C)C(=O)N[C@@H](CC(C)C)C(=O)N[C@H](C(=O)N[C@@H](CC(C)C)C(=O)N[C@@H](CCC(=O)O)C(=O)N1CCC[C@H]1C(=O)N[C@H](C(=O)N[C@@H](CS)C(=O)N[C@@H](CS)C(=O)N[C@@H](CCC(N)=O)C(=O)N[C@@H](CCC(=O)O)C(=O)N[C@@H](CCCNC(=N)N)C(=O)N(C)CC(=O)N[C@@H](C)C(=O)O)[C@@H](C)CC)[C@@H](C)CC [PA-A14Sar] | 3.88 | – | Solubility in water [2, 4]: No
5 | CC[C@H](C)[C@H](N)C(=O)N[C@@H](C)C(=O)N[C@@H](CC(C)C)C(=O)N[C@H](C(=O)N[C@@H](CC(C)C)C(=O)N[C@@H](CCC(=O)O)C(=O)N1CCC[C@H]1C(=O)N[C@H](C(=O)N[C@@H](CS)C(=O)N[C@@H](CS)C(=O)N[C@@H](CCC(N)=O)C(=O)N[C@@H](CCC(=O)O)C(=O)N[C@@H](CCCNC(=N)N)C(=O)N[C@@H](C)C(=O)N(C)CC(=O)O)[C@@H](C)CC)[C@@H](C)CC [PA-A15Sar] | 21.68 | – | Solubility in water [2, 4]: No
6 | CC[C@H](C)[C@H](N)C(=O)N[C@@H](C)C(=O)N[C@@H](CC(C)C)C(=O)N[C@H](C(=O)N[C@@H](CC(C)C)C(=O)N[C@@H](CCC(=O)O)C(=O)N1CCC[C@H]1C(=O)N[C@H](C(=O)N(C)CC(=O)N[C@@H](C)C(=O)N[C@@H](CCC(N)=O)C(=O)N[C@@H](CCC(=O)O)C(=O)N[C@@H](CCCNC(=N)N)C(=O)N[C@@H](C)C(=O)N[C@@H](C)C(=O)O)[C@@H](C)CC)[C@@H](C)CC [PA-C9SarC10A] (H-IALILEPI[Sar]AQERAA-OH) | 99.37 | – | Solubility in water [2, 3]: Yes
7 | CC[C@H](C)[C@H](N)C(=O)N[C@@H](C)C(=O)N[C@@H](CC(C)C)C(=O)N[C@H](C(=O)N[C@@H](CC(C)C)C(=O)N[C@@H](CCC(=O)O)C(=O)N1CCC[C@H]1C(=O)N[C@H](C(=O)N[C@@H](CS)C(=O)N[C@@H](CS)C(=O)N[C@@H](CCC(N)=O)C(=O)N[C@@H](CCC(=O)O)C(=O)N[C@@H](CCCNC(=N)N)C(=O)N[C@@H](C)C(=O)N[C@@H](C)C(=O)NCCOCCOCCC(=O)O)[C@@H](C)CC)[C@@H](C)CC [PA-dPEG02] | – | Yes | –
8 | CC[C@H](C)[C@H](N)C(=O)N[C@@H](C)C(=O)N[C@@H](CC(C)C)C(=O)N[C@H](C(=O)N[C@@H](CC(C)C)C(=O)N[C@@H](CCC(=O)O)C(=O)N1CCC[C@H]1C(=O)N[C@H](C(=O)N[C@@H](CS)C(=O)N[C@@H](CS)C(=O)N[C@@H](CCC(N)=O)C(=O)N[C@@H](CCC(=O)O)C(=O)N[C@@H](CCCNC(=N)N)C(=O)N[C@@H](C)C(=O)N[C@@H](C)C(=O)NCCOCCOCCOCCC(=O)O)[C@@H](C)CC)[C@@H](C)CC [PA-dPEG03] | – | Yes | –
9 | CC[C@H](C)[C@H](N)C(=O)N[C@@H](C)C(=O)N[C@@H](CC(C)C)C(=O)N[C@H](C(=O)N[C@@H](CC(C)C)C(=O)N[C@@H](CCC(=O)O)C(=O)N1CCC[C@H]1C(=O)N[C@H](C(=O)N[C@@H](CS)C(=O)N[C@@H](CS)C(=O)N[C@@H](CCC(N)=O)C(=O)N[C@@H](CCC(=O)O)C(=O)N[C@@H](CCCNC(=N)N)C(=O)N[C@@H](C)C(=O)N[C@@H](C)C(=O)NCCOCCOCCOCCOCCC(=O)O)[C@@H](C)CC)[C@@H](C)CC [PA-dPEG04] | – | Yes | –
10 | CC[C@H](C)[C@H](N)C(=O)N[C@@H](C)C(=O)N[C@@H](CC(C)C)C(=O)N[C@H](C(=O)N[C@@H](CC(C)C)C(=O)N[C@@H](CCC(=O)O)C(=O)N1CCC[C@H]1C(=O)N[C@H](C(=O)N[C@@H](CS)C(=O)N[C@@H](CS)C(=O)N[C@@H](CCC(N)=O)C(=O)N[C@@H](CCC(=O)O)C(=O)N[C@@H](CCCNC(=N)N)C(=O)N[C@@H](C)C(=O)N[C@@H](C)C(=O)NCCOCCOCCOCCOCCOCCOCCC(=O)O)[C@@H](C)CC)[C@@H](C)CC [PA-dPEG06] | – | No | –
11 | CC[C@H](C)[C@H](N)C(=O)N[C@@H](C)C(=O)N[C@@H](CC(C)C)C(=O)N[C@H](C(=O)N[C@@H](CC(C)C)C(=O)N[C@@H](CCC(=O)O)C(=O)N1CCC[C@H]1C(=O)N[C@H](C(=O)N[C@@H](CS)C(=O)N[C@@H](CS)C(=O)N[C@@H](CCC(N)=O)C(=O)N[C@@H](CCC(=O)O)C(=O)N[C@@H](CCCNC(=N)N)C(=O)N[C@@H](C)C(=O)N[C@@H](C)C(=O)NCCOCCOCCOCCOCCOCCOCCOCCOCCC(=O)O)[C@@H](C)CC)[C@@H](C)CC [PA-dPEG08] | – | Yes | –
12 | CC[C@H](C)[C@H](N)C(=O)N[C@@H](C)C(=O)N[C@@H](CC(C)C)C(=O)N[C@H](C(=O)N[C@@H](CC(C)C)C(=O)N[C@@H](CCC(=O)O)C(=O)N1CCC[C@H]1C(=O)N[C@H](C(=O)N[C@@H](CS)C(=O)N[C@@H](CS)C(=O)N[C@@H](CCC(N)=O)C(=O)N[C@@H](CCC(=O)O)C(=O)N[C@@H](CCCNC(=N)N)C(=O)N[C@@H](C)C(=O)N[C@@H](C)C(=O)NCCOCCOCCOCCOCCOCCOCCOCCOCCOCCOCCOCCOCCC(=O)O)[C@@H](C)CC)[C@@H](C)CC [PA-dPEG12] | – | Yes | –
13 | CC[C@H](C)[C@H](N)C(=O)N[C@@H](C)C(=O)N[C@@H](CC(C)C)C(=O)N[C@H](C(=O)N[C@@H](CC(C)C)C(=O)N[C@@H](CCC(=O)O)C(=O)N1CCC[C@H]1C(=O)N[C@H](C(=O)N[C@@H](CS)C(=O)N[C@@H](CS)C(=O)N[C@@H](CCC(N)=O)C(=O)N[C@@H](CCC(=O)O)C(=O)N[C@@H](CCCNC(=N)N)C(=O)N[C@@H](C)C(=O)N[C@@H](C)C(=O)NCCOCCOCCOCCOCCOCCOCCOCCOCCOCCOCCOCCOCCOCCOCCOCCOCCC(=O)O)[C@@H](C)CC)[C@@H](C)CC [PA-dPEG16] | – | Yes | –
14 | CC[C@H](C)[C@H](N)C(=O)N[C@@H](C)C(=O)N[C@@H](CC(C)C)C(=O)N[C@H](C(=O)N[C@@H](CC(C)C)C(=O)N[C@@H](CCC(=O)O)C(=O)N1CCC[C@H]1C(=O)N[C@H](C(=O)N[C@@H](CS)C(=O)N[C@@H](CS)C(=O)N[C@@H](CCC(N)=O)C(=O)N[C@@H](CCC(=O)O)C(=O)N[C@@H](CCCNC(=N)N)C(=O)N[C@@H](C)C(=O)N[C@@H](C)C(=O)NCCOCCOCCOCCOCCOCCOCCOCCOCCOCCOCCOCCOCCOCCOCCOCCOCCOCCOCCOCCOCCC(=O)O)[C@@H](C)CC)[C@@H](C)CC [PA-dPEG20] | – | Yes | –
15 | CC[C@H](C)[C@H](N)C(=O)N[C@@H](C)C(=O)N[C@@H](CC(C)C)C(=O)N[C@H](C(=O)N[C@@H](CC(C)C)C(=O)N[C@@H](CCC(=O)O)C(=O)N1CCC[C@H]1C(=O)N[C@H](C(=O)N[C@@H](CS)C(=O)N[C@@H](CS)C(=O)N[C@@H](CCC(N)=O)C(=O)N[C@@H](CCC(=O)O)C(=O)N[C@@H](CCCNC(=N)N)C(=O)N[C@@H](C)C(=O)N[C@@H](C)C(=O)O)[C@@H](C)CC)[C@@H](C)CC [PA] | – | – | solubility in water / aqueous solutions [2]: low solubility; Solubility in water [2, 4]: No

From patent publication US10005818B2, “Derivative peptide compounds and methods of use” (REALTA HOLDINGS, LLC, priority 2010, dated 2018)
